This is an account of results in ChEMBL document CHEMBL5233285, “Recent Update on the Development of PCSK9 Inhibitors for Hypercholesterolemia Treatment” (J Med Chem, 2022).

Assay [1] addresses T1, Proprotein convertase subtilisin/kexin type 9 (Homo sapiens, UniProt Q8NBP7). The experiment in a line: Inhibition of PCSK9 in human HepG2 cells assessed as increase in LDL uptake at 10 uM. Type of assay: cell-based.
Assay [2] deals with T1, Proprotein convertase subtilisin/kexin type 9. The assay can be described thus: Inhibition of PCSK9 in human HepG2 cells assessed as restoration of LDLR. Type of assay: cell-based.
Assay [3] deals with T2, PCSK9/LDLR (Homo sapiens, UniProt Q8NBP7). The experiment in a line: Inhibition of PCSK9-LDLR (unknown origin) protein-protein interaction. Type of assay: protein assay.
T2 sequence (Q8NBP7 31-152 limits assumed): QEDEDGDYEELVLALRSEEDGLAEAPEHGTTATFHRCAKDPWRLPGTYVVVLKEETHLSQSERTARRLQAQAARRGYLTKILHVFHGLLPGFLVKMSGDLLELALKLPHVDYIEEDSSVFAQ
T2 sequence (Q8NBP7 153-692 limits assumed): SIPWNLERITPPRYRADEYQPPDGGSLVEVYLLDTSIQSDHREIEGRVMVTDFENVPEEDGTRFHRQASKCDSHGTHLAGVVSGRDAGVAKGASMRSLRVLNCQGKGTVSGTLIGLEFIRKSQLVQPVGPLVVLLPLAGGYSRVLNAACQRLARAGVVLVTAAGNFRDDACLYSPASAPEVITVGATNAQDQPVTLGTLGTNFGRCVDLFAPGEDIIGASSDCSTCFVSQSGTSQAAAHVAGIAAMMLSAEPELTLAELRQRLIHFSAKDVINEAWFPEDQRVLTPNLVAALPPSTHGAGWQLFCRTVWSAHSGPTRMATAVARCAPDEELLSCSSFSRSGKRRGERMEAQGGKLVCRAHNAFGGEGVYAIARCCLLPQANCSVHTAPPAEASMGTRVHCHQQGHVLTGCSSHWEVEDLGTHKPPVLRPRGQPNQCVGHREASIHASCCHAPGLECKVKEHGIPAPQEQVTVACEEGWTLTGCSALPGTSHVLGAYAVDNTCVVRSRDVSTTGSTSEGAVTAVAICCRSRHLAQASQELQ
T2 sequence (P01130 22-860 partner limits assumed): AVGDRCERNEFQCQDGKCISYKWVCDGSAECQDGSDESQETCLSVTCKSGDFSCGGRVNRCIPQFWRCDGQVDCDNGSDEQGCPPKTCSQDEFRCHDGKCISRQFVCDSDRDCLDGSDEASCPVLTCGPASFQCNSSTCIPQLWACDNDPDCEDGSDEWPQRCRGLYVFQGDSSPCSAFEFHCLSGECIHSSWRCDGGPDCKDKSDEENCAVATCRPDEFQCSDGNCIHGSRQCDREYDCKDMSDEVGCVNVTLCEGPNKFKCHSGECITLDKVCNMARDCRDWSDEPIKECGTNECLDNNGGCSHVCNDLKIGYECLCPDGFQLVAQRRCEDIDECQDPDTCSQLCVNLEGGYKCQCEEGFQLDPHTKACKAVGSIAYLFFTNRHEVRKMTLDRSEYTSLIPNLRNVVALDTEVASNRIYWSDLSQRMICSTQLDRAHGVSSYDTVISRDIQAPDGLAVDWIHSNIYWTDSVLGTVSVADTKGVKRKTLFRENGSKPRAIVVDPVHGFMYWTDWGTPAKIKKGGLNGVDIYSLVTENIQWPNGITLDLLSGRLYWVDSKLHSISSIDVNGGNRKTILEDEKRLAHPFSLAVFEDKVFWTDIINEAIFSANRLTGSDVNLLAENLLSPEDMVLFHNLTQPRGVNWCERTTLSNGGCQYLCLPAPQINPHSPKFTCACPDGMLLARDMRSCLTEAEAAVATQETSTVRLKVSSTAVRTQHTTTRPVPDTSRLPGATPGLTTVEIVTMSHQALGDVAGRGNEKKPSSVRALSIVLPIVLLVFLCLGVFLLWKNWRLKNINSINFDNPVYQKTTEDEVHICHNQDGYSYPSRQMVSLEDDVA
For assay [4], the target named is T1, Proprotein convertase subtilisin/kexin type 9. The assay can be described thus: Inhibition of PCSK9 in human HepG2 cells assessed as increase in LDL uptake. Type of assay: cell-based.
The target is the same in assay [5]. The experiment in a line: Inhibition of PCSK9 (unknown origin).
Assay [6] relates to Mus musculus. The experiment in a line: Hypocholesterolemic activity in C57BL/6 mouse assessed as increase in LDLR level at 30 mg/kg. Type of assay: functional.
In assay [7] the target is T2, PCSK9/LDLR. The experiment in a line: Inhibition of PCSK9-LDLR protein-protein interaction in human HepG2 cells assessed as increase in LDL uptake. Type of assay: cell-based.
The test system of assay [8] is Mus musculus. The assay can be described thus: Hypocholesterolemic activity in C57BL/6 mouse assessed as reduction in TC level at 30 mg/kg. Type of assay: functional. The arrangement: scale not given: the % may be the effect or the level left.
For assay [9], the target named is T1, Proprotein convertase subtilisin/kexin type 9. The experiment in a line: Binding affinity to human PCSK9.
For assay [10], the target named is Proprotein convertase subtilisin/kexin type 9 (Mus musculus, UniProt Q80W65). The assay can be described thus: Binding affinity to mouse PCSK9.
Chain of Proprotein convertase subtilisin/kexin type 9 (Mus musculus, UniProt Q80W65) (Q80W65 35-155 limits assumed): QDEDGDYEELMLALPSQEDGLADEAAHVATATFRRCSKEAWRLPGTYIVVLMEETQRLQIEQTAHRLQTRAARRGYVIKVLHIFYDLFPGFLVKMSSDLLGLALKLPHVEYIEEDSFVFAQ
Chain of Proprotein convertase subtilisin/kexin type 9 (Mus musculus, UniProt Q80W65) (Q80W65 156-694 limits assumed): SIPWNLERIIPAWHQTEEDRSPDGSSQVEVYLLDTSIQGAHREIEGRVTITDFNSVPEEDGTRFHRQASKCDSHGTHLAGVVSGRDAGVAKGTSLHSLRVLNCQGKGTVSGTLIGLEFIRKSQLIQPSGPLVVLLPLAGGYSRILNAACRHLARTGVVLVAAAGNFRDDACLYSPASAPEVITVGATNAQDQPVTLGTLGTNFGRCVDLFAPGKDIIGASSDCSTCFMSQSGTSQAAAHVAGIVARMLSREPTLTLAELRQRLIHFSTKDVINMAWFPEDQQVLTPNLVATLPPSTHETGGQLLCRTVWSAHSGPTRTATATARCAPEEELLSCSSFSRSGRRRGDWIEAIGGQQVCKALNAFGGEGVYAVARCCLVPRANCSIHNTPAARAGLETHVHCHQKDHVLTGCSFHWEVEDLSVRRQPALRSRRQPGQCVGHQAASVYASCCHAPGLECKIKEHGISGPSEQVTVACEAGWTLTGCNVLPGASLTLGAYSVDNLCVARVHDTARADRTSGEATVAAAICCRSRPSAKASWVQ

Structures are written as SMILES.

T1 sequence (Q8NBP7 31-152 limits assumed): as the sequence (Q8NBP7 31-152 limits assumed) above
T1 sequence (Q8NBP7 153-692 limits assumed): as the sequence (Q8NBP7 153-692 limits assumed) above

Take `CC(=O)N[C@H](C(=O)N[C@H](C(=O)N[C@@H](Cc1ccccc1)C(=O)N[C@H](C(=O)N[C@@H](CO)C(=O)N[C@@H](Cc1c[nH]c2ccccc12)C(=O)N[C@@H](CCC(=O)O)C(=O)N[C@@H](CCC(=O)O)C(=O)N[C@@H](Cc1ccc(O)cc1)C(=O)N[C@@H](CC(C)C)C(=O)N[C@@H](CC(=O)O)C(=O)N[C@@H](Cc1c[nH]c2ccccc12)C(=O)N[C@H](C(N)=O)C(C)C)[C@@H](C)O)C(C)C)[C@@H](C)O`: in assay [1], the inhibition turned out to be 56.5%. In addition, the results for the EC50 in assay [2] and in assay [4] were 5000 nM and 6000 nM, respectively. The compound also showed an IC50 against PCSK9/LDLR [3] of 800 nM.

In [5], `CC(=O)N[C@H](CSCc1cn(CCCCCC(=O)NCCOCCOCCOCCOCCOCCOCCOCCOCCOCCOCCC(=O)NCCCC[C@H](NC(=O)COCCOCCOCCOCCOCCOCCOCCOCCOCCOCCNC(=O)C(N)CCCCn2cc(CSC[C@@H](NC(C)=O)C(=O)N[C@H](C(=O)N[C@H](C(=O)N[C@@H](Cc3ccccc3)C(=O)N[C@H](C(=O)N[C@@H](CO)C(=O)N[C@@H](Cc3c[nH]c4ccccc34)C(=O)N[C@@H](CCC(=O)O)C(=O)N[C@@H](CCC(=O)O)C(=O)N[C@@H](Cc3ccc(O)cc3)C(=O)N[C@@H](CC(C)C)C(=O)N[C@@H](CC(=O)O)C(=O)N[C@@H](Cc3c[nH]c4ccccc34)C(=O)N[C@H](C(=O)N[C@@H](CCCNC(=N)N)C(=O)N[C@@H](CCCNC(=N)N)C(=O)NCC(=O)O)C(C)C)[C@@H](C)O)C(C)C)[C@@H](C)O)nn2)C(=O)NCC(=O)N[C@@H](CCCNC(=N)N)C(=O)N[C@@H](CCCNC(=N)N)C(=O)N[C@@H](CCCCN)C(=O)N[C@@H](Cc2c[nH]c3ccccc23)C(N)=O)nn1)C(=O)N[C@H](C(=O)N[C@H](C(=O)N[C@@H](Cc1ccccc1)C(=O)N[C@H](C(=O)N[C@@H](CO)C(=O)N[C@@H](Cc1c[nH]c2ccccc12)C(=O)N[C@@H](CCC(=O)O)C(=O)N[C@@H](CCC(=O)O)C(=O)N[C@@H](Cc1ccc(O)cc1)C(=O)N[C@@H](CC(C)C)C(=O)N[C@@H](CC(=O)O)C(=O)N[C@@H](Cc1c[nH]c2ccccc12)C(=O)N[C@H](C(=O)N[C@@H](CCCNC(=N)N)C(=O)N[C@@H](CCCNC(=N)N)C(=O)NCC(=O)O)C(C)C)[C@@H](C)O)C(C)C)[C@@H](C)O` (stereo partly specified) had an IC50 of 230 nM.

Regarding `CCNC(=O)[C@@H]1CSCC(=O)N[C@@H](Cc2ccccc2)C(=O)N[C@@H](C(C)C)C(=O)N2CCC[C@H]2C(=O)N[C@@H]([C@@H](C)O)C(=O)N[C@@H]([C@@H](C)O)C(=O)N[C@@H](Cc2ccc(-c3ccccc3)cc2)C(=O)N(C)[C@@H](C)C(=O)N[C@@H](Cc2ccc(-c3ccccc3)cc2)C(=O)N(C)[C@@H](C)C(=O)N[C@@H](CCC(=O)O)C(=O)N[C@@H](C)C(=O)N2CCC[C@H]2C(=O)N1`, the Activity is 90% in the assay with Mus musculus [6] and 43% in the assay with Mus musculus [8]. Further, the EC50 at PCSK9/LDLR [7] is 170 nM. Further, the IC50 against PCSK9/LDLR [3] is 2 nM. For the same compound, the Kd in assay [9] is 6.1 nM; in assay [10], 21 nM.
